In brackets after ≈: the same amount, converted by molar mass.
Experiments:
Curvularia lunata = assay: Anti-fungal activity (NCCLS M-27A based), Curvularia lunata; format: cell-based
Method: It was active against cryptococcus neoformans and curvularai lunata. The cidal activity for the C. neoformans is high enough that it is clear […] against this yeast. This test was conducted using a method based upon NCCLS reference method M-27A published in 1997. Solvent, medium and growth controls were set-up with the tests. Once these were read to validate the test performance, the QC fungi were read to insure they had expected results. These steps validated the test system. DMSO was used as a drug-chemical solvent. […] The 90% cut-off is necessary for azoles, which are static and not cidal. The FMC or cidal level was determined by sub-culturing a sample from each tube showing no growth.

[1] = test system: U937RF, a protease resistant strain; assay: Long term in vitro study, U937RF, reverse transcriptase; format: cell-based, HIV
Method: A microtiter-based reveres transcriptase (RT) reaction is utilized (Buckheit et al (1991) AIDS Research and Human Retroviruses 7:295-302). Tritiated thymidine triphosphate (NEN)(TTP) is resuspended in distilled water at 5 Ci/ml. Poly rA and oligo dT are prepared as a stock solution which is kept at −20° C. The RT reaction buffer is prepared fresh on a daily basis and consists of 125 μl 1M EGTA, 125 μl water, 125 μl Triton X-100, 50 μl Tris (pH 7.4), 50 μl 1 MDDT, and 40 μl 1M MgCl2. These three solutions are mixed together in a ratio of 1 part TTP, 2.5 parts poly rA:oligo dT, 2.5 parts reaction buffer and 4 parts distilled water. Ten microliters of this reaction mixture is placed in a round bottom microtiter place and 15 μl of virus containing supernatant is added and mixed. The plate is incubated at 37° C. for 60 minutes. Following reaction, the reaction volume is spotted onto filter mats, washed 6 times for 5 minutes each in a 5% sodium phosphate buffer, 2 times for 1 minute each in distilled water, 2 times for 1 minute each in 70% ethanol, and then dried. The dried filter mat is placed in a plastic sample bag, Betaplate scintillation fluid is added and the bag is heat sealed. Incorporated radioactivity is quantified utilizing a Wallac Microbeta scintillation counter.
Acute infection of most established human cell lines with HIV-1 results in the eventual establishment of a constitutive virus-producing chronically infected cell line. The cells can be passaged for long periods of time in culture without loss of virus production. These cells may be utilized to evaluate the effects of anti-HIV compounds on syncytium formation or to evaluate the effects of anti-HIV compounds on levels of virus production from these cells. […] Each of the cells contains an integrated HIV genome or provirus. Chronically infected CEM, H9 and U937 cell lines have been prepared and cultured by Southern Research Institute, Frederick Md. and are available from them.
CEM-SS cells chronically infected with HIV isolate, for example SKI (CEM-SKI) are cultured in RPMI1640 tissue culture medium supplemented with 10% fetal bovine serum and antibiotics. […] CEM-SKI or other infected cells with no added drug are used as the control cells. Cells are allowed to grow to a density of approximately 1×10^6 cells/ml and are then passaged at a 1:10 dilution. […] The drug concentration in the flask is then increased two-fold and the cells maintained as above.
The cell populations contain integrated copies of the HIV genome and constitutively produce HIV at relatively high levels or are latently infected and only produce virus after stimulation with phorbol esters, tumor necrosis factor or IL6 (U1 and ACH2). Reductions in virus products were observed when quantifying supernatant reverse transcriptase activity,
A long term in vitro study of 2-(2-thienyl)-imidazolo [4,5-b]pyridine against U937RF, a protease resistant strain, was conducted at three different levels. The results with U937RF cells were reported at weekly intervals.

c1csc(-c2nc3cccnc3[nH]2)c1 [2-(2-thienyl)-imidazolo [4,5-b]pyridine]
MIC (Curvularia lunata; Curvularia lunata, growth inhibited or reduced at least 90%): 0.03 µg/mL (≈ 0.149 µM)
activity against Curvularia lunata (in words) (Curvularia lunata; in vitro): active
reverse transcriptase data ([1]; 7 μg/ml, day 4): 9711
reverse transcriptase data ([1]; 7 μg/ml, day 11): 9974
reverse transcriptase data ([1]; 7 μg/ml, day 18): 7462
reverse transcriptase data ([1]; 7 μg/ml, day 25): 6952
reverse transcriptase data ([1]; 7 μg/ml, day 32): 9161
reverse transcriptase data ([1]; 7 μg/ml, day 39): 11155
reverse transcriptase data ([1]; 7 μg/ml, day 46): 5178
reverse transcriptase data ([1]; 7 μg/ml, day 53): 5878
reverse transcriptase data ([1]; 7 μg/ml, day 60): 7586
reverse transcriptase data ([1]; 7 μg/ml, day 67): 6678
reverse transcriptase data ([1]; 7 μg/ml, day 71): 7299
reverse transcriptase data ([1]; 7 μg/ml, day 74): 5927
reverse transcriptase data ([1]; 7 μg/ml, day 88): 6996
reverse transcriptase data ([1]; 7 μg/ml, day 95): 5624
reverse transcriptase data ([1]; 7 μg/ml, day 102): 6002
reverse transcriptase data ([1]; 7 μg/ml, day 109): 13890
reverse transcriptase data ([1]; 15 μg/ml, day 4): 6397
reverse transcriptase data ([1]; 15 μg/ml, day 11): 8051
reverse transcriptase data ([1]; 15 μg/ml, day 18): 7932
reverse transcriptase data ([1]; 15 μg/ml, day 25): 5229
reverse transcriptase data ([1]; 15 μg/ml, day 32): 7277
reverse transcriptase data ([1]; 15 μg/ml, day 39): 12487
reverse transcriptase data ([1]; 15 μg/ml, day 46): 4703
reverse transcriptase data ([1]; 15 μg/ml, day 53): 4960
reverse transcriptase data ([1]; 15 μg/ml, day 60): 7952
reverse transcriptase data ([1]; 15 μg/ml, day 67): 6417
reverse transcriptase data ([1]; 15 μg/ml, day 71): 7016
reverse transcriptase data ([1]; 15 μg/ml, day 74): 5903
reverse transcriptase data ([1]; 15 μg/ml, day 88): 5887
reverse transcriptase data ([1]; 15 μg/ml, day 95): 4602
reverse transcriptase data ([1]; 15 μg/ml, day 102): 5229
reverse transcriptase data ([1]; 15 μg/ml, day 109): 5718
reverse transcriptase data ([1]; 30 μg/ml, day 4): 4841
reverse transcriptase data ([1]; 30 μg/ml, day 11): 5389
reverse transcriptase data ([1]; 30 μg/ml, day 18): 6988
reverse transcriptase data ([1]; 30 μg/ml, day 25): 6061
reverse transcriptase data ([1]; 30 μg/ml, day 32): 7572
reverse transcriptase data ([1]; 30 μg/ml, day 39): 8558
reverse transcriptase data ([1]; 30 μg/ml, day 46): 3065
reverse transcriptase data ([1]; 30 μg/ml, day 53): 3643
reverse transcriptase data ([1]; 30 μg/ml, day 60): 3445
reverse transcriptase data ([1]; 30 μg/ml, day 67): 4368
reverse transcriptase data ([1]; 30 μg/ml, day 71): 1498
reverse transcriptase data ([1]; 30 μg/ml, day 74): 3639
reverse transcriptase data ([1]; 30 μg/ml, day 88): 2697
reverse transcriptase data ([1]; 30 μg/ml, day 95): 2442
reverse transcriptase data ([1]; 30 μg/ml, day 102): 2815
reverse transcriptase data ([1]; 30 μg/ml, day 109): 2095
reverse transcriptase data on continuation (in words) ([1]; run through 242 days): data remained consistent

— patent US20030232851A1, “Viral treatment” (The Procter & Gamble Company, priority 1999, published 2003)
